Test results reported in patent US20260055081A1, “Metal Chelator Compounds, Coordination Complexes, and Methods of Preparation and Use Thereof” (University of Puerto Rico, priority 2022, published 2026).
Structures can show the parent of a compound that is named as a salt.

Assays:
[1] = tested on: red blood cells; experiment: CO-ADD hemolysis assay; format: cell-based, human; settings: for hemolysis behavior relative to DefNEtTrp (minor hemolysis): human red blood cells
Procedure: CO-ADD hemolysis assay. Dry compounds ranging from 1-2 mg were delivered to the CO-ADD. The compounds were solubilized to a stock concentration of 10 mg/mL in DMSO. Samples were serially diluted 1:2 fold in water to final testing concentrations of […] while keeping the final DMSO concentration to a maximum of 0.32% (v/v). Each sample concentration was prepared in polypropylene 384-well plates (Corning 3657) for hemolysis assays, all in two duplicate plates (n=2). All sample preparation was conducted using liquid handling robots. Human whole blood (Australian Red Cross) was washed three times with three volumes of 0.9% NaCl (w/v) and resuspended in a concentration of […], determined by manual cell count in a Neubauer hemocytometer. Washed cells were added to the compound-containing plates for a final volume of 50 μL. After a 10 min shake on a plate shaker the plates were then incubated for 1 h at 37° C. After incubation, the plates were centrifuged at 1000 g for 10 min to pellet cells and debris, 25 μL of the supernatant was then transferred to reading plates (384 well, polystyrene plated (PS), Corning CLS3680), with hemolysis determined by measuring the supernatant absorbance at […] (OD405) using a Tecan M1000 Pro monochromator plate reader. HC10 and HC50 (concentration at 10% and 50% hemolysis, respectively) were calculated by curve fitting the inhibition values vs. log(concentration) using a sigmoidal dose-response function with variable fitting values for the top, bottom, and slope. The maximal percentage of hemolysis is reported as Dmax. Hemolysis samples are classified by HC10≤32 μg/mL. […] Melittin was used in 8 concentrations in 2-fold serial dilutions with 50 µg/mL being the highest concentration.

[2] = tested on: Jurkat Leukemia cell line; experiment: Jurkat cell viability (MTT assay); format: cell-based; settings: Homo sapiens; Jurkat cell line, 72 h, MTT
Procedure: Jurkat cell culturing and cell viability studies. Jurkat cells are nonadherent cells, and they were cultured in an RPMI-1640 media (supplemented with 10% FBS (v/v) and 1% antibiotic solution (v/v) of penicillin/streptomycin) in non-tissue-culture treated 25 mL flasks according to the known protocol provided by the supplier ATCC. The cell passaging was done at 70% confluency by taking 3 mL of cells and diluting to 25 mL of fresh media. The cells were incubated at 37° C. in 5% CO2 atmosphere.
Jurkat cytotoxicity of DefNEtTrp (6), Def (5), NEtTrp (4), Trp, and 1:1 combinations of 5 with 4 and 5 with Trp was determined by the colorimetric 3-(4,5-dimethylthiazol-2-yl)-2,5-diphenyltetrazolium bromide (MTT) assay. Incubation conditions were the same in all the steps. Cells in 80-95% confluence (grown in standard circular tissue culture dishes, BD Falcon) were separately seeded into 96-well plates using phenol red free RPMI-1640 media (containing 10% FBS and 1% streptomycin/penicillin) in a volume of 50 μL at a concentration of 5.0×10^5 cells/mL. Following this procedure, the Jurkat cells were treated immediately. Stock solution of the compounds were first prepared in DMF at 5 mM and stored at 4° C. for up to 30 days. The stock solution was diluted to specific concentrations using 1×PBS (0.2-20 μM) while DMF was maintained at 1% (v/v). 50 μL of diluted solutions were added in all cell containing wells with at least six replicates per concentration (n=6). The final percentage (v/v) of DMF was 0.5%. The cells were also co-treated with 5 with 4 and 5 with Trp in a 1:1 mole equivalent ratio over the same concentration range but as a combined concentration of both compounds. Control wells in the plates consisted of one lane of cells treated with media alone including 0.5% DMF (v/v) as the measure of 100% viable cell growth in the media. Another control lane consisted of no cells with media including 0.5% DMF (v/v) as a measure of the background with no viable cells. The plates were incubated for 72 h. At 4 h before completion of the incubation time, 25 μL of MTT solution (sterile filtered 5 mg/mL solution, dissolved in 1×PBS buffer) was added to each well. During addition of the MTT solution, the plates were protected from light. After completion a 50 μL portion of 4% (w/v) SDS solution (sterile filtered, dissolved in Tris buffer 1M, pH=10) was added to each well and incubated to solubilize formazan crystals after MTT cell labeling. The absorbance of each well was measured at 570 nm (absorbance of the formazan product at pH >10.0) and 800 nm (as a background correction) using a Tecan plate reader. The absorbance of all wells was compared to the absorbance of the untreated cells with the MTT set as the 100% viable cell standard and the absorbance of the no cell control set as the 0% viable cell standard. Nonlinear regression in GraphPad Prism 8 was utilized to fit the growth curve over the various drug concentrations to determine the half-maximal inhibitory concentration (IC50). All cell viability experiments, including non-Jurkat cells, were repeated at least once for biological duplicates. To confirm cell death at the higher concentration dosages of the compounds and combinations, dead cells were blue stained with trypan blue and visually inspected under the microscope.

[3] = tested on: Jurkat cells; experiment: Apoptosis mechanistic cell viability study (Q-VD-OPh); format: cell-based, human; settings: 10 μM Q-VD-OPh pretreatment, 2 μM cisplatin, 72 h
Procedure: Apoptosis mechanistic cell viability study. Jurkat cells were seeded into 96-well plates, as indicated in the MTT assay described above. The cells were treated with 10 μM of the apoptosis inhibitor Q-VD-OPh (Q-V-O). Another group of cells were treated with media alone. After 1 h incubation, half of the cells supplemented with Q-V-O were treated with 2 μM DefNEtTrp or 2 μM cisplatin, as positive control, while the other half was treated with media alone. The final percentage of DMF was maintained at 0.5% (v/v). The MTT assay was performed with these samples (n=6). A student t-test was performed to evaluate the difference in the viability of cells treated with DefNEtTrp or cisplatin and supplemented with and without Q-V-O.

Row | Structure (SMILES) | hemolysis behavior relative to DefNEtTrp (minor hemolysis) [1] | IC50 [2] | HC10 and HC50 values ([1]; positive hemolytic control) | antiproliferative activity when cells are pretreated with Q-VD-OPh [3]
1 | NCCNC(=S)N/N=C/c1ncccc1N [NEtTrp, nitrogen ethyl triapine dihydrochloride] | comparable | 5900 ± 290 nM | – | –
2 | CC[C@H](C)[C@H](NC(=O)CN)C(=O)NCC(=O)N[C@@H](C)C(=O)N[C@H](C(=O)N[C@@H](CC(C)C)C(=O)N[C@@H](CCCCN)C(=O)N[C@H](C(=O)N[C@@H](CC(C)C)C(=O)N[C@H](C(=O)N[C@H](C(=O)NCC(=O)N[C@@H](CC(C)C)C(=O)N1CCC[C@H]1C(=O)N[C@@H](C)C(=O)N[C@@H](CC(C)C)C(=O)N[C@H](C(=O)N[C@@H](CO)C(=O)N[C@@H](Cc1c[nH]c2ccccc12)C(=O)N[C@H](C(=O)N[C@@H](CCCCN)C(=O)N[C@@H](CCCNC(=N)N)C(=O)N[C@@H](CCCCN)C(=O)N[C@@H](CCCNC(=N)N)C(=O)N[C@@H](CCC(N)=O)C(=O)N[C@@H](CCC(N)=O)C(N)=O)[C@@H](C)CC)[C@@H](C)CC)[C@@H](C)O)[C@@H](C)O)C(C)C)C(C)C [Melittin] | – | – | within the expected range | –
3 | O=C(O)c1ccc(-n2nc(-c3ccccc3O)nc2-c2ccccc2O)cc1 [Def, deferasirox, reference compound] | comparable | 2600 ± 150 nM | – | –
4 | N.N.[Cl][Pt][Cl] [cisplatin, reference compound] | – | – | – | less antiproliferative activity
5 | NC(=S)NN=Cc1ncccc1N [Trp, 3-aminopyridine-2-carboxaldehyde-thiosemicarbazone, reference compound] | comparable | 1100 ± 40 nM | – | –
